Results from patent US4507487A, “Chemical compounds” (Bristol-Myers Company, priority 1983, dated 1985).
Converted amounts (≈) assume the structure as drawn. Where two headings read alike, the source gives them in different places.

Columns and labels:
[1] = system: Cephalothinsensitive E. coli, Kl. pneumoniae and Pr. mirabilis; test: MIC, two-fold serial agar dilution in Mueller-Hinton agar, group (G-)-Ia; assay type: cell-based; details: (G-)-Ia, cephalothin-sensitive E. coli (2), Kl. pneumoniae (1), Pr. mirabilis (2 strains); read-out: Geometric Mean of MIC
Method: (§1) In the primary evaluation of the compounds of this invention, the Minimum Inhibitory Concentrations (MIC's) of the compounds were determined by the two-fold serial agar dilution method in Mueller-Hinton agar against 32 strains of test organisms in six groups.
(G-)Ia: Cephalothinsensitive E. coli (2 strains), Kl. pneumoniae (1
strain) and Pr. mirabilis (2 strains)

[2] = system: Cephalothinresistant E. coli and Kl. pneumoniae; test: MIC, two-fold serial agar dilution in Mueller-Hinton agar, group (G-)-Ib; assay type: cell-based; details: read-out: Geometric Mean of MIC
Method: as §1
(G-)Ib: Cephalothinresistant E. coli (3 strains) and Kl. pneumoniae (3

Ps. aeruginosa = test: MIC, two-fold serial agar dilution in Mueller-Hinton agar, group (G-)-III; assay type: cell-based; details: Pseudomonas aeruginosa, Ps. aeruginosa (6 strains), read-out: Geometric Mean of MIC
Method: as §1

[3] = system: M. morganii, Ent. cloacae and Ser. marcescens; test: MIC, two-fold serial agar dilution in Mueller-Hinton agar, group (G-)-II; assay type: cell-based; details: (G-)-II, M. morganii (1), Ent. cloacae (2), Ser. marcescens (2 strains); read-out: Geometric Mean of MIC
Method: as §1
(G-)II: M. morganii (1 strain), Ent. cloacae (2 strains) and Ser.

[4] = system: Penicillinresistant S. aureus; test: MIC, two-fold serial agar dilution in Mueller-Hinton agar, group (G+)-Ib; assay type: cell-based; details: Staphylococcus aureus, read-out: Geometric Mean of MIC
Method: as §1
(G+)Ib: Penicillinresistant S. aureus (5 strains)

Ps. aeruginosa A20717 = test: MIC against specific test organism; assay type: cell-based; details: Pseudomonas aeruginosa, read-out: Minimum Inhibitory Concentration
Method: as §1
(§2) The test method was as described for Table 1.

Ps. aeruginosa A9843 = test: MIC against specific test organism; assay type: cell-based; details: Pseudomonas aeruginosa, read-out: Minimum Inhibitory Concentration
Method: as §1, §2

S. aureus BX-1633-2 = test: MIC against specific test organism; assay type: cell-based; details: Staphylococcus aureus, BX16332; S. aureus BX-1633-2, penicillin-resistant strain; read-out: Minimum Inhibitory Concentration
Method: as §1, §2

K. pneumoniae A9867 = test: MIC against specific test organism; assay type: cell-based; details: Klebsiella pneumoniae; K. pneumoniae A9867, cephalothin-resistant strain; read-out: Minimum Inhibitory Concentration
Method: as §1, §2

S. aureus Smith = test: MIC against specific test organism; assay type: cell-based; details: Staphylococcus aureus, read-out: Minimum Inhibitory Concentration
Method: as §1, §2

K. pneumoniae D11 = test: MIC against specific test organism; assay type: cell-based; details: Klebsiella pneumoniae, read-out: Minimum Inhibitory Concentration
Method: as §1, §2

Ser. marcescens A20019 = test: MIC against specific test organism; assay type: cell-based; details: Serratia marcescens, read-out: Minimum Inhibitory Concentration
Method: as §1, §2

Ps. aeruginosa A15150 = test: MIC against specific test organism; assay type: cell-based; details: Pseudomonas aeruginosa, read-out: Minimum Inhibitory Concentration
Method: as §1, §2

M. morganii A9553 = test: MIC against specific test organism; assay type: cell-based; details: Morganella morganii, read-out: Minimum Inhibitory Concentration
Method: as §1, §2

Pr. mirabilis A9554 = test: MIC against specific test organism; assay type: cell-based; details: Proteus mirabilis, read-out: Minimum Inhibitory Concentration
Method: as §1, §2

E. coli A15164 = test: MIC against specific test organism; assay type: cell-based; details: Escherichia coli; E. coli A15164, cephalothin-resistant strain; read-out: Minimum Inhibitory Concentration
Method: as §1, §2

Ent. cloacae A9656 = test: MIC against specific test organism; assay type: cell-based; details: Enterobacter cloacae, read-out: Minimum Inhibitory Concentration
Method: as §1, §2

E. coli Juhl = test: MIC against specific test organism; assay type: cell-based; details: Escherichia coli, read-out: Minimum Inhibitory Concentration
Method: as §1, §2

[5] = system: Penicillinsensitive S. aureus; test: MIC, two-fold serial agar dilution in Mueller-Hinton agar, group (G+)-Ia; assay type: cell-based; details: Staphylococcus aureus; (G+)-Ia, penicillin-sensitive S. aureus (5 strains); read-out: Geometric Mean of MIC
Method: as §1

[6] = Mouse blood levels after single intramuscular injection; assay type: in vivo, mice; details: for concentration at 0.5 h: 30 minutes; for concentration at 1 h: 60 minutes
Method: The absorption of some of the preferred compounds were determined in mice following a single intramuscular injection of the test compound (dissolved in 0.1M phosphate buffer; pH 7) at a dosage of 10, 20 or 40 mg/kg. Blood samples were collected from the orbital sinuses into heparinized capillary tubes and assayed in Nutrient Agar (pH 6.6) using E. coli Ess-22-31 as the test organism. The blood levels at various time intervals, the half-life values (t1/2) and the areas under the curve (AUC) are shown in Table 3.

[7] = 10 mg/kg im, read-out: Mouse Blood Level
[8] = 20 mg/kg im, read-out: Mouse Blood Level
[9] = 40 mg/kg im, read-out: Mouse Blood Level

CSc1scc[n+]1CC1=C(C(=O)[O-])N2C(=O)C(NC(=O)/C(=N\OC3(C(=O)O)CCC3)c3csc(N)n3)[C@H]2SC1 (stereo partly drawn) [Example 2, 7-[(Z)-2-(2-Aminothiazol-4-yl)-2-(1-carboxycyclobut-1-oxyimino)acetamido]-3-(2-methylthiothiazolio)methyl-3-cephem-4-carboxylate]
MIC [1]: 0.025 µg/mL (≈ 0.0409 µM) | MIC [2]: 0.4 µg/mL (≈ 0.655 µM) | MIC (Ps. aeruginosa): 1.8 µg/mL (≈ 2.95 µM) | MIC [3]: 0.2 µg/mL (≈ 0.327 µM) | MIC [4]: 2.7 µg/mL (≈ 4.42 µM) | MIC (Ps. aeruginosa A20717): 6.3 µg/mL (≈ 10.3 µM) | MIC (Ps. aeruginosa A9843): 1.6 µg/mL (≈ 2.62 µM) | MIC (S. aureus BX-1633-2): 3.1 µg/mL (≈ 5.08 µM) | MIC (K. pneumoniae A9867): 3.1 µg/mL (≈ 5.08 µM) | MIC (S. aureus Smith): 1.6 µg/mL (≈ 2.62 µM) | MIC (K. pneumoniae D11): 0.05 µg/mL (≈ 0.0819 µM) | MIC (Ser. marcescens A20019): 0.1 µg/mL (≈ 0.164 µM) | MIC (Ps. aeruginosa A15150): 0.8 µg/mL (≈ 1.31 µM) | MIC (M. morganii A9553): 0.2 µg/mL (≈ 0.327 µM) | MIC (Pr. mirabilis A9554): 0.025 µg/mL (≈ 0.0409 µM) | MIC (E. coli A15164): 0.4 µg/mL (≈ 0.655 µM) | MIC (Ent. cloacae A9656): 0.05 µg/mL (≈ 0.0819 µM) | MIC (E. coli Juhl): 0.1 µg/mL (≈ 0.164 µM) | MIC [5]: 0.92 µg/mL (≈ 1.51 µM) | AUC ([6]; 10 mg/kg im): 3600 ng·h/mL | half-life ([6]; 10 mg/kg im): 17 min | concentration at 10 min [6, 7]: 8400 ng/mL | concentration at 20 min [6, 7]: 5500 ng/mL | concentration at 0.5 h [6, 7]: 3700 ng/mL | concentration at 40 min [6, 7]: < 1600 ng/mL | AUC ([6]; 20 mg/kg im): 9000 ng·h/mL | half-life ([6]; 20 mg/kg im): 11 min | concentration at 10 min [6, 8]: 22000 ng/mL | concentration at 20 min [6, 8]: 15000 ng/mL | concentration at 0.5 h [6, 8]: 8600 ng/mL | concentration at 40 min [6, 8]: 5700 ng/mL | concentration at 50 min [6, 8]: 2400 ng/mL | concentration at 1 h [6, 8]: < 1600 ng/mL | AUC ([6]; 40 mg/kg im): 16000 ng·h/mL | half-life ([6]; 40 mg/kg im): 11 min | concentration at 10 min [6, 9]: 43000 ng/mL | concentration at 20 min [6, 9]: 27000 ng/mL | concentration at 0.5 h [6, 9]: 14000 ng/mL | concentration at 40 min [6, 9]: 7500 ng/mL | concentration at 50 min [6, 9]: 3800 ng/mL | concentration at 1 h [6, 9]: 2300 ng/mL | concentration at 1.5 h ([6]; 40 mg/kg im, 90 minutes, read-out: Mouse Blood Level): < 1600 ng/mL
